From patent US9745310B2 (SK BIOPHARMACEUTICALS CO., LTD., priority 2015, dated 2017)
pEC50: −log10 of the molar value.

These molecules were tested against human mGluR5 receptor (Homo sapiens (Human), UniProt P41594) (assay: Calcium influx assay based on fluorescence (mGluR5 PAM activity)). Settings: human mGluR5 receptor-overexpressed HEK293 cell line; L-glutamate EC20; Fluo-4, FLIPR.
Experimental: Efficacy as a positive allosteric modulator (PAM) of mGluR5 of the compounds of the Examples was tested as follows:
Calcium Influx Assay Based on Fluorescence
Ca^2+ (calcium) influx assay is an experiment for measuring the activity of a positive allosteric modulator of mGluR5 receptor in which human mGluR5 receptor-overexpressed HEK293 cell line is used. The day before the experiment, cells were prepared in a cell culture medium (DMEM, 5% FBS) with the density of 80,000/well, and 100 μl of cells were dispensed into each well of a poly-D-lysine-coated 96-well plate. Cells were incubated in a 5% CO2, 37° C. incubator. The next day, the cell culture medium was removed from the plate, and 100 μl of 1× Fluo-4 calcium indicator diluted with a buffer (1× Hank's balanced salt solution, 20 mM HEPES, 2.5 mM probenecid) were added to each well and incubated at 37° C. for 1 hour. The compound stock solutions were prepared in 100% DMSO, and the compounds were serially diluted with a ¼ dilution to 6 or 7 concentrations (final concentration was 10 μM to 10 nM). The diluted compound solutions were added to the plate with 0.1 to 0.2% of final DMSO concentration. 1 hour after the addition of Fluo-4 calcium indicator, L-glutamate (EC20 concentration) and the test compound solutions were added to the plate, and Ca^2+ reaction was then measured by FLIPR at room temperature. The activity of the compounds was standardized on the basis of the results of maximum value-minimum value of fluorescent reaction, and the activity value was calculated on the basis that no activity on glutamate EC20 is 0% and the reaction to glutamate maximum value is 100%.

Chain of human mGluR5 receptor (P41594 21-1212): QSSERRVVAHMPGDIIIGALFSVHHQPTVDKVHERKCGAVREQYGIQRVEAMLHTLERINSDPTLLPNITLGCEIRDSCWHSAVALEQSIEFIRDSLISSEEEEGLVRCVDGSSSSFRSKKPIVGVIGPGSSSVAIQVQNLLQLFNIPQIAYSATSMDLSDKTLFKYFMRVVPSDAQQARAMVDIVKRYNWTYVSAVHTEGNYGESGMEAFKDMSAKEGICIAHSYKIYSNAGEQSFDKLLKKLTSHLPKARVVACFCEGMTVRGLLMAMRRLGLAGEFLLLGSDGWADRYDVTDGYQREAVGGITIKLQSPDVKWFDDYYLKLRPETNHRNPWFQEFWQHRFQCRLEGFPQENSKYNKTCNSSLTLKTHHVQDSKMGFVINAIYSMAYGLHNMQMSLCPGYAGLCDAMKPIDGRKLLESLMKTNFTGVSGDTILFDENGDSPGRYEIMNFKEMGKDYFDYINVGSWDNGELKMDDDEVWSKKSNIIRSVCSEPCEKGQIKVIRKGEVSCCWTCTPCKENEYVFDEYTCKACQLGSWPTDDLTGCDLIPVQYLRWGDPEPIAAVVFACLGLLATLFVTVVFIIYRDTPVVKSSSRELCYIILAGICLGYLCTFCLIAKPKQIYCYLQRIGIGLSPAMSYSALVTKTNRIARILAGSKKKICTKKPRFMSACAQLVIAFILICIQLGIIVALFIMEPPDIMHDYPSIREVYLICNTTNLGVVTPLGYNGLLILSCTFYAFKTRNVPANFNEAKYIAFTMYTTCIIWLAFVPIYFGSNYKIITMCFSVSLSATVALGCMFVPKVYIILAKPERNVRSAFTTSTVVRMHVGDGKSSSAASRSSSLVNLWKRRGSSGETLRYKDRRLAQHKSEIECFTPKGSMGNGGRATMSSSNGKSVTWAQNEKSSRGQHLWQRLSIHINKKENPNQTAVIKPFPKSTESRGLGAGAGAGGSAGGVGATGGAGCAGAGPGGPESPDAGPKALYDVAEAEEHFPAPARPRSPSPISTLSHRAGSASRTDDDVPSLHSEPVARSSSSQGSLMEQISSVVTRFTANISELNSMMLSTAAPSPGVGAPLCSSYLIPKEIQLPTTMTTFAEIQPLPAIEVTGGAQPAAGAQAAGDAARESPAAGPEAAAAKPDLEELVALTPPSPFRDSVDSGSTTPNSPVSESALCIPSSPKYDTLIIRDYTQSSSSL

| SMILES | pEC50 |
| --- | --- |
| Fc1cccc(OCc2cn3cc(-c4ccc(F)cc4F)cnc3n2)c1 [Example 41, 6-(2,4-difluorophenyl)-2-(3-fluorophenoxymethyl)imidazo[1,2-a]pyrimidine] | 6.30 to 7.00 |
| COc1cc(F)ccc1-c1cnc2nc(COc3cccc(F)c3)cn2c1 [Example 42, 6-(4-fluoro-2-methoxyphenyl)-2-(3-fluorophenoxymethyl)imidazo[1,2-a]pyrimidine] | 6.00 to 6.30 |
| Oc1cc(-c2cnc3nc(COc4cccc(F)c4)cn3c2)ccc1F [Example 43, 6-(4-fluoro-3-hydroxyphenyl)-2-(3-fluorophenoxymethyl)-imidazo[1,2-a]pyrimidine] | 6.30 to 7.00 |
| Nc1ccccc1-c1cnc2nc(COc3cccc(F)c3)cn2c1 [Example 44, 6-(2-aminophenyl)-2-(3-fluorophenoxymethyl)imidazo[1,2-a]pyrimidine] | 6.30 to 7.00 |
| Fc1cccc(OCc2cn3cc(-c4ccncc4Cl)cnc3n2)c1 [Example 45, 6-(3-chloropyridin-4-yl)-2-(3-fluorophenoxymethyl)imidazo[1,2-a]pyrimidine] | 6.30 to 7.00 |
| Cc1ccncc1-c1cnc2nc(COc3cccc(F)c3)cn2c1 [Example 46, 6-(4-methylpyridin-3-yl)-2-(3-fluorophenoxymethyl)imidazo[1,2-a]pyrimidine] | 6.30 to 7.00 |
| Fc1ccc(OCc2cn3cc(-c4ccc(F)cc4F)cnc3n2)cc1 [Example 47, 6-(2,4-difluorophenyl)-2-(4-fluorophenoxymethyl)imidazo[1,2-a]pyrimidine] | 6.30 to 7.00 |
| Cc1cc(F)ccc1-c1cnc2nc(COc3ccc(F)cc3)cn2c1 [Example 48, 6-(4-fluoro-2-methylphenyl)-2-(4-fluorophenoxymethyl)imidazo[1,2-a]pyrimidine] | 6.30 to 7.00 |
| Fc1ccc(OCc2cn3cc(-c4ccncc4Cl)cnc3n2)cc1 [Example 49, 6-(3-chloropyridin-4-yl)-2-(4-fluorophenoxymethyl)imidazo[1,2-a]pyrimidine] | 6.00 to 6.30 |
| Cc1cccc(C)c1-c1cnc2nc(COc3ccc(F)cc3)cn2c1 [Example 50, 6-(2,6-dimethylphenyl)-2-(4-fluorophenoxymethyl)imidazo[1,2-a]pyrimidine] | 6.00 to 6.30 |
| Fc1ccc(OCc2cn3cc(-c4ccc(F)nc4)cnc3n2)cc1 [Example 51, 2-[(4-fluorophenoxy)methyl]-6-(6-fluoro-3-pyridyl)imidazo[1,2-a]pyrimidine] | 6.30 to 7.00 |
| Oc1ccc(OCc2cn3cc(-c4ccc(F)cc4)cnc3n2)cc1 [Example 52, 4-[[6-(4-fluorophenyl)imidazo[1,2-a]pyrimidin-2-yl]methoxy]phenol] | 6.30 to 7.00 |
| Fc1ccc(OCc2cn3cc(-c4ccc(F)cc4)cnc3n2)cc1 [Example 53, 2-[(4-fluorophenoxy)methyl]-6-(4-fluorophenyl)imidazo[1,2-a]pyrimidine] | 6.30 to 7.00 |
| Fc1ccc(-c2cnc3nc(COc4cccc(F)c4)cn3c2)cc1 [Example 54, 2-[(3-fluorophenoxy)methyl]-6-(4-fluorophenyl)imidazo[1,2-a]pyrimidine] | 6.30 to 7.00 |
| Oc1cc(-c2cnc3nc(COc4ccc(F)cc4)cn3c2)ccc1F [Example 55, 2-fluoro-5-[2-[(4-fluorophenoxy)methyl]imidazo[1,2-a]pyrimidin-6-yl]phenol] | 6.30 to 7.00 |
| Fc1ccc(OCc2cn3cc(-c4ccccc4)cnc3n2)cc1 [Example 56, 2-[(4-fluorophenoxy)methyl]-6-phenyl-imidazo[1,2-a]pyrimidine] | 6.30 to 7.00 |
| Oc1cc(F)ccc1-c1cnc2nc(COc3cccc(F)c3)cn2c1 [Example 57, 5-fluoro-2-[2-[(3-fluorophenoxy)methyl]imidazo[1,2-a]pyrimidin-6-yl]phenol] | 6.30 to 7.00 |

| SMILES | pEC50 |
| --- | --- |
| Oc1cc(F)ccc1-c1cnc2nc(COc3ccc(F)cc3)cn2c1 [Example 58, 5-fluoro-2-[2-[(4-fluorophenoxy)methyl]imidazo[1,2-a]pyrimidin-6-yl]phenol] | 6.30 to 7.00 |
| [2H]c1c([2H])c([2H])c(OCc2cn3cc(-c4ccc(F)cc4)cnc3n2)c([2H])c1[2H] [Example 59, 6-(4-fluorophenyl)-2-[(2,3,4,5,6-pentadeuteriophenoxy)methyl]imidazo[1,2-a]pyrimidine] | 6.30 to 7.00 |
| Cc1ccccc1-c1cnc2nc(COc3ccc(F)cc3)cn2c1 [Example 60, 2-[(4-fluorophenoxy)methyl]6-(o-tolyl)imidazo[1,2-a]pyrimidine] | 6.30 to 7.00 |
| Cc1ccc(F)cc1-c1cnc2nc(COc3ccc(F)cc3)cn2c1 [Example 61, 6-(5-fluoro-2-methyl-phenyl)-2-[(4-fluorophenoxy)methyl]imidazo[1,2-a]pyrimidine] | 6.00 to 6.30 |
| Fc1ccc(OCc2cn3cc(-c4ccnc(F)c4)cnc3n2)cc1 [Example 62, 2-[(4-fluorophenoxy)methyl]-6-(2-fluoro-4-pyridyl)imidazo[1,2-a]pyrimidine] | 6.00 to 6.30 |
| Oc1ccccc1-c1cnc2nc(COc3ccc(F)cc3)cn2c1 [Example 63, 2-[2-[(4-fluorophenoxy)methyl]imidazo[1,2-a]pyrimidin-6-yl]phenol] | 6.30 to 7.00 |
| Cc1ccc(-c2cnc3nc(COc4ccc(F)cc4)cn3c2)c(F)c1 [Example 64, 6-(2-fluoro-4-methyl-phenyl)-2-[(4-fluorophenoxy)methyl]imidazo[1,2-a]pyrimidine] | 6.00 to 6.30 |
| Fc1ccc(OCc2cn3cc(-c4ccc(C(F)(F)F)nc4)cnc3n2)cc1 [Example 65, 2-[(4-fluorophenoxy)methyl]-6-[6-(trifluoromethyl)-3-pyridyl]imidazo[1,2-a]pyrimidine] | 6.30 to 7.00 |
| Nc1ccccc1-c1cnc2nc(COc3ccc(F)cc3)cn2c1 [Example 66, 2-[2-[(4-fluorophenoxy)methyl]imidazo[1,2-a]pyrimidin-6-yl]aniline] | 6.30 to 7.00 |
| COc1cc(C#N)ccc1-c1cnc2nc(COc3ccc(F)cc3)cn2c1 [Example 68, 4-[2-[(4-fluorophenoxy)methyl]imidazo[1,2-a]pyrimidin-6-yl]-3-methoxy-benzonitrile] | 6.30 to 7.00 |
| COc1cc(Cl)ccc1-c1cnc2nc(COc3ccc(F)cc3)cn2c1 [Example 69, 6-(4-chloro-2-methoxy-phenyl)-2-[(4-fluorophenoxy)methyl]imidazo[1,2-a]pyrimidine] | 6.30 to 7.00 |
| Nc1cc(-c2cnc3nc(COc4ccc(F)cc4)cn3c2)ccc1F [Example 70, 2-fluoro-5-[2-[(4-fluorophenoxy)methyl]imidazo[1,2-a]pyrimidin-6-yl]aniline] | 6.30 to 7.00 |
| Fc1cccc(OCc2cn3cc(-c4ccc(F)nc4F)cnc3n2)c1 [Example 71, 6-(2,6-difluoro-3-pyridyl)-2-[(3-fluorophenoxy)methyl]imidazo[1,2-a]pyrimidine] | 6.30 to 7.00 |
| Cc1ccc(-c2cnc3nc(COc4ccc(F)cc4)cn3c2)cc1N [Example 72, 5-[2-[(4-fluorophenoxy)methyl]imidazo[1,2-a]pyrimidin-6-yl]-2-methyl-aniline] | 6.30 to 7.00 |
| Nc1cc(F)c(F)cc1-c1cnc2nc(COc3ccc(F)cc3)cn2c1 [Example 73, 4,5-difluoro-2-[2-[(4-fluorophenoxy)methyl]imidazo[1,2-a]pyrimidin-6-yl]aniline] | 6.00 to 6.30 |
| Cc1ccc(-c2cnc3nc(COc4ccc(F)cc4)cn3c2)c(N)c1 [Example 74, 2-[2-[(4-fluorophenoxy)methyl]imidazo[1,2-a]pyrimidin-6-yl]-5-methyl-aniline] | 6.30 to 7.00 |
